Experimental data: patent US11384063B2, “Modulators of estrogen receptor proteolysis and associated methods of use” (Arvinas Operations, Inc., priority 2017, dated 2022)

These compounds were tested against T1, ERα (Homo sapiens, UniProt P03372) (assay: ERE luciferase reporter gene assay in T47D-KBluc cells (target engagement)). Details: 10% FBS, 24 hours, Table 2 VHL centric PROTACs, read-out: IC50.
T1 sequence (P03372 1-595): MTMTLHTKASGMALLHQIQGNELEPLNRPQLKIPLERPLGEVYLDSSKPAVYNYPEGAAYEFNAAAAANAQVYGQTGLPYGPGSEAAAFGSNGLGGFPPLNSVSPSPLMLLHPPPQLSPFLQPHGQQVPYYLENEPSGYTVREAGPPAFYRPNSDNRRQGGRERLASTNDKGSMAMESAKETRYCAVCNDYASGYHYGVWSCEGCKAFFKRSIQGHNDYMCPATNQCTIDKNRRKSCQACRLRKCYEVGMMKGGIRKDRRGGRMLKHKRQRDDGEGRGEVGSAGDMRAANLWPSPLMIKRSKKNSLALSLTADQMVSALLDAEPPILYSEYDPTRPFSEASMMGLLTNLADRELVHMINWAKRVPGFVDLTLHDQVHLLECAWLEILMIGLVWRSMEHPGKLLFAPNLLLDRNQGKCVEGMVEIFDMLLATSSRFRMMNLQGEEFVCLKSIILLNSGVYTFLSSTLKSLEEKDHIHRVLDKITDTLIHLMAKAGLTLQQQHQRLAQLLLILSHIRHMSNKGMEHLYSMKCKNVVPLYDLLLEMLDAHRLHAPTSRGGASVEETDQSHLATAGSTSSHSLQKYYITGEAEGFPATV
Assay type: cell-based
Set-up: T47D human breast cancer cells stably transfected with estrogen responsive element/promoter/luciferase reporter gene; host or cells: T47D-KBluc cells
Summary of the method: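 T47D-KBluc breast cancer cells, which carry a stable ERE-luciferase reporter, were grown in RPMI with 10% FBS (about 10 pM estrogen) and exposed to PROTACs for 24 h. The 12-point, 3-fold series ran from 300 nM to 2 pM. Luciferase was read after lysis, and IC50 was fitted from duplicates.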

IC50 [nM]	SMILES
> 100	COc1ccc2c(Oc3ccc(OCCN4CCN(CCOCC(=O)N[C@H](C(=O)N5C[C@H](O)C[C@H]5C(=O)N[C@@H](C)c5ccc(-c6scnc6C)cc5)C(C)(C)C)CC4)cc3)c(-c3ccc(Br)cc3)sc2c1 [Compound 155]
> 100	Cc1ncsc1-c1ccc(CNC(=O)[C@@H]2CCCN2C(=O)[C@@H](NC(=O)COCCN2CCN(CCOc3ccc(Oc4c(-c5ccc(Br)cc5)sc5cc(O)ccc45)cc3)CC2)C(C)(C)C)cc1 [Compound 156]
> 100	COc1ccc2c(Oc3ccc(OCCN4CCN(CCOCC(=O)N[C@H](C(=O)N5CCC[C@H]5C(=O)NCc5ccc(-c6scnc6C)cc5)C(C)(C)C)CC4)cc3)c(-c3ccc(Br)cc3)sc2c1 [Compound 157]
> 100	COc1ccc2c(Oc3ccc(OCCN4CCN(CCOCC(=O)N[C@H](C(=O)N5CC(=O)C[C@H]5C(=O)NCc5ccc(-c6scnc6C)cc5)C(C)(C)C)CC4)cc3)c(-c3ccc(Br)cc3)sc2c1 [Compound 159]
> 100	Cc1ncsc1-c1ccc(CNC(=O)[C@@H]2C[C@@H](O)CN2C(=O)[C@H](c2cc(OCCN3CCN(CCOc4ccc(Oc5c(-c6ccc(Br)cc6)sc6cc(O)ccc56)cc4)CC3)no2)C(C)C)cc1 [Compound 163]

Same assay, conditions: 10% FBS, 24 hours, Table 3 cereblon centric PROTACs, read-out: ER-α Luciferase IC50

SMILES	IC50 [nM]
O=C1CCC(N2Cc3cc(NCCCOCCOCCOc4ccc(Oc5c(-c6ccc(Br)cc6)sc6cc(O)ccc56)cc4)ccc3C2=O)C(=O)N1 (stereo not drawn) [Compound 171]	8.7
O=C1CCC(N2C(=O)c3ccc(NCCCOCCCOCCOc4ccc(Oc5c(-c6ccc(Br)cc6)sc6cc(O)ccc56)cc4)cc3C2=O)C(=O)N1 (stereo not drawn) [Compound 172]	15.7
O=C1CCC(N2C(=O)c3ccc(OCCCOCCCOCCCCOc4ccc(Oc5c(-c6ccc(Br)cc6)sc6cc(O)ccc56)cc4)cc3C2=O)C(=O)N1 (stereo not drawn) [Compound 175]	66.7
O=C1CCC(N2C(=O)c3ccc(NCCCOCCCOCCCCOc4ccc(Oc5c(-c6ccc(Br)cc6)sc6cc(O)ccc56)cc4)cc3C2=O)C(=O)N1 (stereo not drawn) [Compound 176]	28.7
O=C1CCC(N2C(=O)c3ccc(N4CCN(CCC5CN(CCOc6ccc(Oc7c(-c8ccc(Br)cc8)sc8cc(O)ccc78)cc6)C5)CC4)cc3C2=O)C(=O)N1 (stereo not drawn) [Compound 186]	> 300
O=C1CCC(N2C(=O)c3ccc(N4CCC(CN5CCC(Oc6ccc(Oc7c(-c8ccc(C(F)(F)F)cc8)sc8cc(O)ccc78)cc6)CC5)CC4)cc3C2=O)C(=O)N1 (stereo not drawn) [Compound 188]	8.7
O=C1CCC(N2Cc3cc(C4CCN(C5CCN(CCOc6ccc(Oc7c(-c8ccc(Br)cc8)sc8cc(O)ccc78)cc6)CC5)CC4)ccc3C2=O)C(=O)N1 (stereo not drawn) [Compound 196]	8.6
O=C1CCC(N2Cc3cc(N4CCN(C5CC6(C5)CN(CCOc5ccc(Oc7c(-c8ccc(C(F)(F)F)cc8)sc8cc(O)ccc78)cc5)C6)CC4)ccc3C2=O)C(=O)N1 (stereo not drawn) [Compound 198]	10.2
O=C1CCC(N2Cc3cc(N4CCN(CC5CCN(CCOc6ccc(Oc7c(-c8ccc(C(F)(F)F)cc8)sc8cc(O)ccc78)cc6)CC5)CC4)ccc3C2=O)C(=O)N1 (stereo not drawn) [Compound 200]	8.4
O=C1CCC(N2C(=O)c3ccc(N4CCN(CC5CCN(CCOc6ccc(Oc7c(-c8ccc(C(F)(F)F)cc8)sc8cc(O)ccc78)cc6)CC5)CC4)cc3C2=O)C(=O)N1 (stereo not drawn) [Compound 202]	14.8
O=C1CCC(N2Cc3cc(N4CCN(CC5CCN(CCOc6ccc(Oc7c(-c8ccc(C(F)(F)F)cc8)sc8cc(O)ccc78)cc6)CC5)CC4)c(F)cc3C2=O)C(=O)N1 (stereo not drawn) [Compound 204]	16.4
O=C1CCC(N2Cc3c(cc(F)c(N4CCN(C5CC6(C5)CN(CCOc5ccc(Oc7c(-c8ccc(C(F)(F)F)cc8)sc8cc(O)ccc78)cc5)C6)CC4)c3F)C2=O)C(=O)N1 (stereo not drawn) [Compound 206]	13.3
O=C1CCC(N2Cc3cc(N4CCN(CCCOc5ccc(Oc6c(-c7ccc(C(F)(F)F)cc7)sc7cc(O)ccc67)cc5)CC4)ccc3C2=O)C(=O)N1 (stereo not drawn) [Compound 207]	11.4
O=C1CCC(N2Cc3c(ccc(N4CCN(CCCOc5ccc(Oc6c(-c7ccc(Br)cc7)sc7cc(O)ccc67)cc5)CC4)c3F)C2=O)C(=O)N1 (stereo not drawn) [Compound 208]	8.4
O=C1CCC(N2C(=O)c3ccc(N4CCN(CCCCc5ccc(Oc6c(-c7ccc(Br)cc7)sc7cc(O)ccc67)cc5)CC4)cc3C2=O)C(=O)N1 (stereo not drawn) [Compound 211]	31.6
O=C1CCC(N2C(=O)c3ccc(N4CCC(N5CC(Oc6ccc(Oc7c(-c8ccc(Br)cc8)sc8cc(O)ccc78)cc6)C5)CC4)cc3C2=O)C(=O)N1 (stereo not drawn) [Compound 212]	15
O=C1CCC(N2Cc3cc(N4CCN(CCCOc5ccc(Oc6c(-c7ccc(OC(F)(F)F)cc7)sc7cc(O)ccc67)cc5)CC4)c(F)cc3C2=O)C(=O)N1 (stereo not drawn) [Compound 219]	19.1
O=C1CCC(N2Cc3cc(N4CCN(CCCOc5ccc(Oc6c(-c7ccc(Br)cc7)sc7cc(O)ccc67)cc5)CC4)cc(F)c3C2=O)C(=O)N1 (stereo not drawn) [Compound 222]	8.9
O=C1CCC(N2Cc3nc(N4CCN(CC5CCN(c6c(F)cc(Oc7c(-c8ccc(Br)cc8)sc8cc(O)ccc78)cc6F)CC5)CC4)ccc3C2=O)C(=O)N1 (stereo not drawn) [Compound 242]	18.7

Next, values leading:

IC50 [nM]	SMILES
8	O=C1CCC(N2Cc3cc(NCCCOCCCOCCCCOc4ccc(Oc5c(-c6ccc(Br)cc6)sc6cc(O)ccc56)cc4)ccc3C2=O)C(=O)N1 (stereo not drawn) [Compound 173]
6.7	O=C1CCC(N2Cc3cc(N4CC(CN5CCC(c6ccc(Oc7c(-c8ccc(Br)cc8)sc8cc(O)ccc78)cc6)CC5)C4)ccc3C2=O)C(=O)N1 (stereo not drawn) [Compound 241]
5.6	O=C1CCC(N2Cc3cc(NCCCOCCCOCCCOc4ccc(Oc5c(-c6ccc(Br)cc6)sc6cc(O)ccc56)cc4)ccc3C2=O)C(=O)N1 (stereo not drawn) [Compound 170]
5.1	O=C1CCC(N2Cc3cc(N4CCC(CN5CCC(Oc6ccc(Oc7c(-c8ccc(C(F)(F)F)cc8)sc8cc(O)ccc78)cc6)CC5)CC4)ccc3C2=O)C(=O)N1 (stereo not drawn) [Compound 187]
4.7	O=C1CCC(N2Cc3c(cc(F)c(N4CCN(C5CCN(CCOc6ccc(Oc7c(-c8ccc(C(F)(F)F)cc8)sc8cc(O)ccc78)cc6)CC5)CC4)c3F)C2=O)C(=O)N1 (stereo not drawn) [Compound 203]
3	O=C1CCC(N2C(=O)c3ccc(N4CC(CN5CCN(CCOc6ccc(Oc7c(-c8ccc(Br)cc8)sc8cc(O)ccc78)cc6)CC5)C4)cc3C2=O)C(=O)N1 (stereo not drawn) [Compound 189]
2.9	O=C1CCC(N2Cc3c(ccc(N4CCN(C5CCN(CCOc6ccc(Oc7c(-c8ccc(Br)cc8)sc8cc(O)ccc78)cc6)CC5)CC4)c3F)C2=O)C(=O)N1 (stereo not drawn) [Compound 195]
2.8	O=C1CCC(N2C(=O)c3ccc(CCCCN4CCCN(CCOc5ccc(Oc6c(-c7ccc(Br)cc7)sc7cc(O)ccc67)cc5)CC4)cc3C2=O)C(=O)N1 (stereo not drawn) [Compound 197]
2.8	O=C1CCC(N2C(=O)c3ccc(N4CC(CN5CCC(c6ccc(Oc7c(-c8ccc(Br)cc8)sc8cc(O)ccc78)cc6)CC5)C4)cc3C2=O)C(=O)N1 (stereo not drawn) [Compound 209]
2.3	O=C1CCC(N2Cc3cc(N4CCN(CCOc5ccc(Oc6c(-c7ccc(Br)cc7)sc7cc(O)ccc67)cc5)CC4)ccc3C2=O)C(=O)N1 (stereo not drawn) [Compound 210]
2.1	O=C1CCC(N2Cc3cc(N4CCC(N5CC(Oc6ccc(Oc7c(-c8ccc(Br)cc8)sc8cc(O)ccc78)cc6)C5)CC4)ccc3C2=O)C(=O)N1 (stereo not drawn) [Compound 233]
1.2	O=C1CCC(N2Cc3cc(N4CC(N5CCC(Oc6ccc(Oc7c(-c8ccc(Br)cc8)sc8cc(O)ccc78)cc6)CC5)C4)ccc3C2=O)C(=O)N1 (stereo not drawn) [Compound 240]
